By IC50 is commonly meant the concentration that inhibits the measured activity by half. What is called inhibition is the relative decrease from the control value, in per cent.

For assay [1], the system named is CsgA gene expression (csgBAC promoter-GFP reporter) in E. coli UTI89. The experiment in a line: In vitro live cell fluorescent reporter assay of CsgA transcription (Reporter Assay). The class given is cell-based. The following applies: Escherichia coli. The gist of the method:
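Compounds at 0.14–100 μM (1% DMSO final) incubated 20 h at 27 °C in YESCA broth with UTI89 carrying a single-copy GFP reporter under the csgBAC intergenic promoter region, inoculum OD600 0.003. Fluorescence normalized to vehicle wells gave IC50 and 50%-of-vehicle concentration; OD600 reduction >10% flagged growth impact.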
Background: A reporter such as luciferase makes a cellular process visible.

A further assay deals with T1, human α-synuclein (Homo sapiens, UniProt P37840).
T1 construct: the full-length gene for untagged human α-synuclein was inserted; made in house; host or cells: E. coli BL21(DE3), plasmid derived from pT7 or pET11a
The experiment in a line: Cell-free Thioflavin T assay of α-synuclein aggregation (αSyn ThT Assay). The assay is classed as biochemical. The conditions noted are these: αSyn 50 μM. How it is done: To assess the effects of compounds on aggregation of α-synuclein, a cell-free assay was performed using purified α-synuclein and Thioflavin T. In the assay, human α-synuclein was expressed in E. coli BL21(DE3) from a plasmid derived from pT7 or pET11a into which the full-length gene for untagged human α-synuclein was inserted. Cells were induced at OD600 0.6 with 0.8 mM IPTG for 4 hours, harvested by centrifugation and suspended in a volume of lysis buffer (10 mM Tris, pH 8.0, 1 mM EDTA, and 1 mM PMSF) equivalent to one-tenth the volume of culture and lysed by boiling for 20 minutes. Cell debris was pelleted by centrifugation, clarified lysate was treated with 10% streptomycin sulfate at 136 μL/mL followed by glacial acetic acid at 228 μL/mL, lysate was centrifuged, supernatant was transferred to a fresh tube and protein was precipitated via addition of an equal volume of saturated (100%) ammonium sulfate and incubated at 4° C. on a rocking shaker for 1 hour. The protein was pelleted via centrifugation and washed with an equal volume of 100 mM ammonium acetate in chilled ethanol, pelleted via centrifugation, washed twice with chilled ethanol, dried overnight, resuspended in 50 mM potassium phosphate buffer pH 7.3 or 10 mM Tris pH 7.4, and passed through a 50 kDa cut-off column. Immediately prior to use, the purified α-synuclein was filtered with a 0.2 μm nylon filter. The assay was conducted in 96-well black microplates with a single 1-2 mm glass bead in each well, 20-40 μM ThioflavinT, 1% DMSO, α-synuclein at 50 μM and compounds at 20-100 μM. Plates were sealed with sealing tape (ThermoFisher 232701), incubated at 37° C. in a Tecan Nano F200 plate reader with excitation at 438 nm using a 439 nm filter with a bandwidth of 8 nm, and emission at 495 nm with a 490 nm filter with a bandwidth of 10 nm. During the assay, plates were shaken continuously or were shaken for 999 seconds every 18 minutes. Readings were performed hourly for up to 73 hours. The effect of compounds on α-synuclein aggregation in the assay was determined with data at 36, 47, 48 or 72 hours or from the final timepoint of the assay, prior to or roughly near the time when ThT fluorescence plateaued in the vehicle control wells. The vehicle controls contained all components of the assay except compounds and represented the level of α-synuclein aggregation in the absence of an inhibitor or accelerator. Fluorescence values for each compound with α-synuclein were first adjusted by subtracting the average fluorescence of the compound in the absence of α-synuclein. These adjusted values were normalized by dividing them by the average fluorescence at the same timepoint in the vehicle control wells, and the average normalized fluorescence with the compound was expressed as a percentage of the average fluorescence observed in untreated controls. Percent inhibition of α-synuclein aggregation by a compound was determined by subtracting the percent average fluorescence with the compound relative to the average vehicle control from 100%. A higher positive percent inhibition reflects greater inhibition of α-synuclein aggregation, while a negative percent inhibition reflects potentiation of α-synuclein aggregation.
Alternate concentrations of Thioflavin T may be used in the assay and may affect the fluorescent signal and sensitivity of the assay. Alternate concentrations of α-synuclein may be used and such alterations may affect aggregation kinetics of α-synuclein in the assay. Alternate concentrations of compounds may be tested in the assay, and dose-responses may be evaluated. Additional reagents may be added to the assay which may affect aggregation kinetics of α-synuclein depending on their concentration, including detergents such as sodium dodecyl sulfate, sodium chloride, dithiotreitol, or bovine serum albumin. Shaking may be included at alternate intervals in the assay and may affect α-synuclein aggregation kinetics. […]

For the next assay, the target named is T2, E. coli CsgA (Escherichia coli, UniProt P28307).
T2 construct: made in house; host or cells: E. coli NEB 3016 slyD::kan, pET11d
T2 sequence (P28307 23-151): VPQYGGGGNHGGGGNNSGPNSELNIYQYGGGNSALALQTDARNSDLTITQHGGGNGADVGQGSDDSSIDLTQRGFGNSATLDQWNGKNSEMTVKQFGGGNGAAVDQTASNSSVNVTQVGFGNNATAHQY
The experiment in a line: In vitro ThioflavinT assay of CsgA aggregation (CsgA ThT Assay). The assay is classed as biochemical. The conditions noted are these: for remaining activity at 25 µM: compound 25 μM; for remaining activity at 100 µM: compound 100 μM. The gist of the method: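 Purified C-terminal His-tagged CsgA, monomerised by desalting and 30-kDa filtration, at 2-20 μM with 20-40 μM ThT in 50 mM potassium phosphate pH 7.3, 1% DMSO, compounds 3.125-200 uM; room temperature, fluorescence (ex 438/em 495 nm) read every 15 min. Background-subtracted signal expressed as percent inhibition versus vehicle at 6-6.5 or 8-9 h, or as percent control AUC.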

Setting [2] is: read-out: Reporter Assay Abs IC50 (μM), median Abs IC50 in the CsgA reporter assay, N/A = maximum expression reduction is <50% of control.
The mark [3] stands for this setting: read-out: Reporter Assay Abs IC50, activity range, class symbol.
Where [4] appears, read: class symbol, compounds 100 μM, read-out: αSyn ThT Assay % inhibition, activity range.
[5] abbreviates: mean percent inhibition relative to DMSO control, compounds 100 μM, read-out: αSyn ThT Assay % inhibition.
[6] abbreviates: read-out: CsgA ThT Assay (10 μM CsgA) % Control AUC at 1005 minutes, 25 μM (activity range), CsgA 10 μM, black plates, 1005 minutes, class symbol.
The mark [7] stands for this setting: read-out: CsgA ThT Assay (10 μM CsgA) % Control AUC at 1005 minutes, 25 μM, mean AUC as % of DMSO control, CsgA 10 μM, black plates, 1005 minutes.
The mark [8] stands for this setting: read-out: CsgA ThT Assay (10 μM CsgA) % Control AUC at 1005 minutes, 100 μM (activity range), CsgA 10 μM, black plates, 1005 minutes, class symbol.
[9] abbreviates: read-out: CsgA ThT Assay (10 μM CsgA) % Control AUC at 1005 minutes, 100 μM, mean AUC as % of DMSO control, CsgA 10 μM, black plates, 1005 minutes.
Where [10] appears, read: mean % inhibition of αSyn aggregation relative to DMSO control, compounds at 100 μM, read-out: αSyn ThT Assay % Inhibition.
[11] abbreviates: compounds at 100 μM, class symbol, read-out: αSyn ThT Assay % Inhibition (activity range).

Each structure is given as a SMILES string. Where two headings read alike, the source gives them in different places.

As for `O=C(O)C1CN(CCc2cccc3ccccc23)c2c(-c3cccc(C(F)(F)F)c3)c(Cc3cccc4ccccc34)c(Cl)c(=O)n21` (stereo not drawn) [Compound 238, 6-chloro-1-(2-(naphthalen-1-yl)ethyl)-7-(naphthalen-1-ylmethyl)-5-oxo-8-(3-(trifluoromethyl)phenyl)-1,2,3,5-tetrahydroimidazo[1,2-a]pyridine-3-carboxylic acid], the IC50 was 0.7 µM in assay [1] (setting [2]) and under 1.3 µM in assay [1] (setting [3]). For the same compound, the figures for the inhibition at 100 µM on human α-synuclein (setting [4]) and on human α-synuclein (setting [5]) were over 60% and 94%, respectively.

Regarding `COc1cc(Cc2cc(=O)n3c(c2-c2cccc(C(F)(F)F)c2)N(Cc2ccccc2)CC3C(=O)O)c2ccccc2c1` (stereo not drawn) [Compound 233, 1-benzyl-7-((3-methoxynaphthalen-1-yl)methyl)-5-oxo-8-(3-(trifluoromethyl)phenyl)-1,2,3,5-tetrahydroimidazo[1,2-a]pyridine-3-carboxylic acid], the values for the IC50 in assay [1] (setting [2]) and in assay [1] (setting [3]) were 0.6 µM and under 1.3 µM, respectively. Also, the inhibition at 100 µM on human α-synuclein (setting [4]) was 31 to 60%; on human α-synuclein (setting [5]) it was 50%.

As for `COc1cc(Cc2c(-c3cccc(C(F)(F)F)c3)c3n(c(=O)c2Cl)C(C(=O)O)CN3Cc2ccccc2)c2ccccc2c1` (stereo not drawn) [Compound 234, 1-benzyl-6-chloro-7-((3-methoxynaphthalen-1-yl)methyl)-5-oxo-8-(3-(trifluoromethyl)phenyl)-1,2,3,5-tetrahydroimidazo[1,2-a]pyridine-3-carboxylic acid], the IC50 in assay [1] (setting [2]) was 0.4 µM; in assay [1] (setting [3]), under 1.3 µM. In addition, the inhibition at 100 µM on human α-synuclein (setting [4]) is over 60%; at human α-synuclein (setting [5]) it was 70%.

`O=C(O)C1CN(Cc2ccccc2)c2c(-c3cccc(C(F)(F)F)c3)c(Cc3ccc(Cl)c4ccccc34)cc(=O)n21` (stereo not drawn) [Compound 232, 1-benzyl-7-((4-chloronaphthalen-1-yl)methyl)-5-oxo-8-(3-(trifluoromethyl)phenyl)-1,2,3,5-tetrahydroimidazo[1,2-a] pyridine-3-carboxylic acid]: the IC50 is 0.7 µM in assay [1] (setting [2]) and under 1.3 µM in assay [1] (setting [3]). Moreover, the inhibition at 100 µM is 11 to 30% on human α-synuclein (setting [4]) and 23% at human α-synuclein (setting [5]).

As for `CN1CC(C(=O)O)n2c(c(-c3cccc(C(F)(F)F)c3)c(Cc3ccc(NS(C)(=O)=O)c4ccccc34)cc2=O)S1(=O)=O` (stereo not drawn) [Compound 067], the remaining activity at 25 µM at E. coli CsgA (setting [6]) was over 60%; on E. coli CsgA (setting [7]), 67%. Further, the remaining activity at 100 µM was 11 to 31% at E. coli CsgA (setting [8]) and 16% on E. coli CsgA (setting [9]). Moreover, the inhibition at 100 µM is 35% at human α-synuclein (setting [10]) and 31 to 60% on human α-synuclein (setting [11]).

In the case of `O=C(O)C1CNS(=O)(=O)c2c(-c3cccc(C(F)(F)F)c3)c(Cc3cccc4ccccc34)c(NC3CCCC3)c(=O)n21` (stereo not drawn) [Compound 005, 7-(cyclopentylamino)-8-(naphthalen-1-ylmethyl)-6-oxo-9-(3-(trifluoromethyl)phenyl)-3,4-dihydro-2H,6H-pyrido[1,2-e][1,2,5]thiadiazine-4-carboxylic acid 1,1-dioxide], the remaining activity at 25 µM at E. coli CsgA (read-out: CsgA ThT Assay (2 μM CsgA) % Control Bmax 25 μM, activity range, class symbol, CsgA 2 μM, white plates) is over 60%; at E. coli CsgA (read-out: CsgA ThT Assay (2 μM CsgA) % Control Bmax 25 μM, mean Bmax as percentage of DMSO control, CsgA 2 μM, white plates) it was 66%. In addition, the remaining activity at 100 µM was 11 to 31% on E. coli CsgA (read-out: CsgA ThT Assay (2 μM CsgA) % Control Bmax 100 μM, activity range, class symbol, CsgA 2 μM, white plates) and 20% on E. coli CsgA (read-out: CsgA ThT Assay (2 μM CsgA) % Control Bmax 100 μM, mean Bmax as percentage of DMSO control, CsgA 2 μM, white plates). Also, the inhibition at 100 µM at human α-synuclein (setting [4]) is 31 to 60%; on human α-synuclein (setting [5]), 48%.

With `O=C(O)CCCN1CC(C(=O)O)n2c(c(-c3cccc(C(F)(F)F)c3)c(Cc3cccc4ccccc34)cc2=O)S1(=O)=O` (stereo not drawn) [Compound 029, 2-(3-carboxypropyl)-8-(naphthalen-1-ylmethyl)-6-oxo-9-(3-(trifluoromethyl)phenyl)-3,4-dihydro-2H,6H-pyrido[1,2-e][1,2,5]thiadiazine-4-carboxylic acid 1,1-dioxide], the remaining activity at 25 µM at E. coli CsgA (setting [6]) was over 60%; at E. coli CsgA (setting [7]), 71%. In addition, the remaining activity at 100 µM at E. coli CsgA (setting [8]) was 31 to 60%; on E. coli CsgA (setting [9]) it was 48%. Also, the inhibition at 100 µM was -2% on human α-synuclein (setting [10]) and -10 to 10% at human α-synuclein (setting [11]).

For `CC(C)(C)c1ccc(CCN2CC(C(=O)O)n3c2c(-c2cccc(C(F)(F)F)c2)c(Cc2cccc4ccccc24)c(Cl)c3=O)cc1` (stereo not drawn) [Compound 239, 1-(4-(tert-butyl)phenethyl)-6-chloro-7-(naphthalen-1-ylmethyl)-5-oxo-8-(3-(trifluoromethyl)phenyl)-1,2,3,5-tetrahydroimidazo[1,2-a]pyridine-3-carboxylic acid], the half-maximal inhibitory concentration (IC50) in assay [1] (setting [2]) is 0.6 µM; in assay [1] (setting [3]), under 1.3 µM. For the same compound, the inhibition at 100 µM on human α-synuclein (setting [4]) is 31 to 60%; on human α-synuclein (setting [5]) it was 58%.

`N#Cc1ccccc1CN1CC(C(=O)O)n2c1c(-c1cccc(C(F)(F)F)c1)c(Cc1cccc3ccccc13)c(Cl)c2=O` (stereo not drawn) [Compound 165, 6-chloro-1-(2-cyanobenzyl)-7-(naphthalen-1-ylmethyl)-5-oxo-8-(3-(trifluoromethyl)phenyl)-1,2,3,5-tetrahydroimidazo[1,2-a]pyridine-3-carboxylic acid]: the results for the half-inhibitory concentration (IC50) in assay [1] (setting [2]) and in assay [1] (setting [3]) were 0.8 µM and under 1.3 µM, respectively. Moreover, the figures for the inhibition at 100 µM at human α-synuclein (setting [4]) and on human α-synuclein (setting [5]) were 11 to 30% and 30%, respectively.

Source of the values: patent US20230131899A1, “INHIBITORS OF MICROBIALLY INDUCED AMYLOID” (Axial Therapeutics, Inc., priority 2020, published 2023).
